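Following 48 hours of exposure in 96-well plates, responses at five concentrations were used to interpolate endpoints linearly. TGI marks complete inhibition of growth.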
Experiments:
Experiment in all cases: growth of human tumour cells (NCI), 48 h
HOP-62 NSCLC = test system: HOP-62 NSCLC
SK-OV-3 ovarian = test system: SK-OV-3 ovarian
UO-31 renal = test system: UO-31 renal
HT29 colon = test system: HT29 colon
CCRF-CEM leukemia = test system: CCRF-CEM leukemia
HCC-2998 colon = test system: HCC-2998 colon
SF-295 CNS = test system: SF-295 CNS
HOP-92 NSCLC = test system: HOP-92 NSCLC
HCT-116 colon = test system: HCT-116 colon
MDA-MB-435 = test system: MDA-MB-435
HL-60(TB) leukemia = test system: HL-60(TB) leukemia
SNB-75 CNS = test system: SNB-75 CNS
NCI-H522 lung = test system: NCI-H522 lung
OVCAR-5 ovarian = test system: OVCAR-5 ovarian
SK-MEL-2 melanoma = test system: SK-MEL-2 melanoma
K-562 leukemia = test system: K-562 leukemia
SK-MEL-28 melanoma = test system: SK-MEL-28 melanoma
BT-549 breast = test system: BT-549 breast
PC-3 prostate = test system: PC-3 prostate
SW-620 colon = test system: SW-620 colon
OVCAR-8 ovarian = test system: OVCAR-8 ovarian
T-47D breast = test system: T-47D breast
COLO 205 colon = test system: COLO 205 colon
MDA-N = test system: MDA-N
SK-MEL-5 melanoma = test system: SK-MEL-5 melanoma
RPMI-8226 leukemia = test system: RPMI-8226 leukemia
NCI/ADR-RES ovarian = test system: NCI/ADR-RES ovarian
DU-145 prostate = test system: DU-145 prostate
ACHN renal = test system: ACHN renal
UACC-62 melanoma = test system: UACC-62 melanoma
UACC-257 melanoma = test system: UACC-257 melanoma
KM12 colon = test system: KM12 colon
MALME-3M melanoma = test system: MALME-3M melanoma
IGROV1 ovarian = test system: IGROV1 ovarian
SNB-19 CNS = test system: SNB-19 CNS
NCI-H226 lung = test system: NCI-H226 lung
OVCAR-3 ovarian = test system: OVCAR-3 ovarian
786-0 renal = test system: 786-0 renal
HCT-15 colon = test system: HCT-15 colon
MOLT-4 leukemia = test system: MOLT-4 leukemia
EKVX NSCLC = test system: EKVX NSCLC
CAKI-1 renal = test system: CAKI-1 renal
MCF7 breast = test system: MCF7 breast
NCI-H23 lung = test system: NCI-H23 lung
LOX IMVI melanoma = test system: LOX IMVI melanoma
NCI-H460 lung = test system: NCI-H460 lung
SF-268 CNS = test system: SF-268 CNS
HS 578T breast = test system: HS 578T breast
TK-10 renal = test system: TK-10 renal
OVCAR-4 ovarian = test system: OVCAR-4 ovarian
M14 melanoma = test system: M14 melanoma
SN12C renal = test system: SN12C renal
RXF 393 renal = test system: RXF 393 renal
U251 CNS = test system: U251 CNS
A549 NSCLC = test system: A549 NSCLC
SF-539 CNS = test system: SF-539 CNS
MDA-MB-231 breast = test system: MDA-MB-231 breast
A498 renal = test system: A498 renal

In the case of c1ccc(N=C2SC(c3ccccc3)(c3ccccc3)c3ccccc32)cc1, the TGI (HOP-62 NSCLC) is reported as greater than 100 µM, the TGI (SK-OV-3 ovarian) is reported as greater than 100 µM and the TGI (UO-31 renal) is reported as greater than 100 µM. The TGI (HT29 colon) was greater than 100 µM, the TGI (CCRF-CEM leukemia) was greater than 100 µM and the TGI (HCC-2998 colon) was greater than 100 µM. For the same molecule, the TGI (SF-295 CNS) was greater than 100 µM, the TGI (HOP-92 NSCLC) was greater than 100 µM and the TGI (HCT-116 colon) was greater than 100 µM. The TGI (MDA-MB-435) was greater than 100 µM, the TGI (HL-60(TB) leukemia) was greater than 100 µM and the TGI (SNB-75 CNS) was greater than 100 µM. It also gave a TGI (NCI-H522 lung) greater than 100 µM, a TGI (OVCAR-5 ovarian) greater than 100 µM and a TGI (SK-MEL-2 melanoma) greater than 100 µM. The TGI (K-562 leukemia) was greater than 100 µM, the TGI (SK-MEL-28 melanoma) was greater than 100 µM and the TGI (BT-549 breast) was greater than 100 µM. The TGI (PC-3 prostate) was greater than 100 µM, the TGI (SW-620 colon) was greater than 100 µM and the TGI (OVCAR-8 ovarian) was greater than 100 µM. For the same molecule, the TGI (T-47D breast) was greater than 100 µM, the TGI (COLO 205 colon) was greater than 100 µM and the TGI (MDA-N) was greater than 100 µM. It also gave a TGI (SK-MEL-5 melanoma) greater than 100 µM, a TGI (RPMI-8226 leukemia) greater than 100 µM and a TGI (NCI/ADR-RES ovarian) greater than 100 µM. The TGI (DU-145 prostate) was greater than 100 µM, the TGI (ACHN renal) was greater than 100 µM and the TGI (UACC-62 melanoma) was greater than 100 µM. The TGI (UACC-257 melanoma) was greater than 100 µM, the TGI (KM12 colon) was greater than 100 µM and the TGI (MALME-3M melanoma) was greater than 100 µM. For the same molecule, the TGI (IGROV1 ovarian) was greater than 100 µM, the TGI (SNB-19 CNS) was greater than 100 µM and the TGI (NCI-H226 lung) was greater than 100 µM. It also gave a TGI (OVCAR-3 ovarian) greater than 100 µM, a TGI (786-0 renal) greater than 100 µM and a TGI (HCT-15 colon) greater than 100 µM. It also gave a TGI (MOLT-4 leukemia) greater than 100 µM, a TGI (EKVX NSCLC) greater than 100 µM and a TGI (CAKI-1 renal) greater than 100 µM. It also gave a TGI (MCF7 breast) greater than 100 µM, a TGI (NCI-H23 lung) greater than 100 µM and a TGI (LOX IMVI melanoma) greater than 100 µM. For the same molecule, the TGI (NCI-H460 lung) was greater than 100 µM, the TGI (SF-268 CNS) was greater than 100 µM and the TGI (HS 578T breast) was greater than 100 µM. It also gave a TGI (TK-10 renal) greater than 100 µM, a TGI (OVCAR-4 ovarian) greater than 100 µM and a TGI (M14 melanoma) greater than 100 µM. It also gave a TGI (SN12C renal) greater than 100 µM, a TGI (RXF 393 renal) greater than 100 µM and a TGI (U251 CNS) greater than 100 µM. For the same molecule, the TGI (A549 NSCLC) was greater than 100 µM, the TGI (SF-539 CNS) was greater than 100 µM and the TGI (MDA-MB-231 breast) was greater than 100 µM. For the same molecule, the TGI (A498 renal) was greater than 100 µM.

CC1(C)OCC(C2CCC3(C)C4=CCC5C(C)(C)C(O)CCC5(C)C4CCC23C)CC(O)C1O (centres undefined) showed a TGI (SK-OV-3 ovarian) of 35.5 µM, a TGI (UO-31 renal) of 33.2 µM and a TGI (HT29 colon) of 33.4 µM. The TGI (CCRF-CEM leukemia) was 68.7 µM, the TGI (HCC-2998 colon) was 32.3 µM and the TGI (SF-295 CNS) was 35.6 µM. The TGI (HOP-92 NSCLC) was 36.4 µM, the TGI (HCT-116 colon) was 27.3 µM and the TGI (MDA-MB-435) was 31.8 µM. For the same molecule, the TGI (HL-60(TB) leukemia) was 56.7 µM, the TGI (SNB-75 CNS) was 29 µM and the TGI (NCI-H522 lung) was 36.3 µM. It also gave a TGI (OVCAR-5 ovarian) of 36.2 µM, a TGI (SK-MEL-2 melanoma) of 32.5 µM and a TGI (K-562 leukemia) of 21.6 µM. The TGI (SK-MEL-28 melanoma) was 32.6 µM, the TGI (BT-549 breast) was 32.9 µM and the TGI (PC-3 prostate) was 26.6 µM. The TGI (SW-620 colon) was 37.4 µM, the TGI (OVCAR-8 ovarian) was 33.3 µM and the TGI (T-47D breast) was 23.8 µM. It also gave a TGI (COLO 205 colon) of 43.5 µM, a TGI (MDA-N) of 34.5 µM and a TGI (SK-MEL-5 melanoma) of 28.7 µM. The TGI (RPMI-8226 leukemia) was 48.6 µM, the TGI (NCI/ADR-RES ovarian) was 39.5 µM and the TGI (DU-145 prostate) was 29 µM. For the same molecule, the TGI (ACHN renal) was 45.9 µM, the TGI (UACC-62 melanoma) was 29.1 µM and the TGI (UACC-257 melanoma) was 30.6 µM. For the same molecule, the TGI (KM12 colon) was 28.1 µM, the TGI (MALME-3M melanoma) was 30.6 µM and the TGI (IGROV1 ovarian) was 33.1 µM. It also gave a TGI (SNB-19 CNS) of 29.5 µM, a TGI (NCI-H226 lung) of 32.9 µM and a TGI (OVCAR-3 ovarian) of 30 µM. It also gave a TGI (786-0 renal) of 28.7 µM, a TGI (HCT-15 colon) of 32.8 µM and a TGI (MOLT-4 leukemia) of 35.9 µM. It also gave a TGI (EKVX NSCLC) of 28.5 µM, a TGI (CAKI-1 renal) of 27.5 µM and a TGI (MCF7 breast) of 47.3 µM. The TGI (NCI-H23 lung) was 38.2 µM, the TGI (LOX IMVI melanoma) was 31.7 µM and the TGI (NCI-H460 lung) was 41.4 µM. It also gave a TGI (SF-268 CNS) of 37.6 µM, a TGI (HS 578T breast) of 44.7 µM and a TGI (TK-10 renal) of 28.7 µM. It also gave a TGI (OVCAR-4 ovarian) of 32.3 µM, a TGI (M14 melanoma) of 35.4 µM and a TGI (SN12C renal) of 36.2 µM. It also gave a TGI (U251 CNS) of 31.3 µM, a TGI (A549 NSCLC) of 36 µM and a TGI (SF-539 CNS) of 39.9 µM. The TGI (MDA-MB-231 breast) was 35.7 µM and the TGI (A498 renal) was 42.6 µM.

Reference: PubChem BioAssay (NCI)
